Here are results for 13 compounds from ChEMBL document CHEMBL4422690, “Synthesis of Rosmarinic Acid Amides as Antioxidative and Hypoglycemic Agents” (J Nat Prod, 2019).

Usually IC50 stands for the concentration that inhibits the measured activity by half. In general, Ki refers to the equilibrium dissociation constant of an inhibitor or competing ligand from its target.

A short description of experiment [1]: Antioxidant activity assessed as trolox equivalents of AAPH radical scavenging activity at 50 uM preincubated for 10 mins followed by AAPH addition and measured every min for 30 mins by ORAC-FL assay. In kind it is functional.
A short description of experiment [2]: Inhibition of yeast alpha-glucosidase using pNP-alpha-G as substrate measured after 30 mins. Details: species or system Saccharomyces cerevisiae.
Experiment [3] is described as follows: Antioxidant activity assessed as DPPH radical scavenging activity incubated for 1.5 hrs under dark condition by spectrometric method. In kind it is functional. Background: DPPH is a stable violet radical that fades when it is reduced.
Experiment [4] in a line: Mixed-type inhibition of yeast alpha-glucosidase assessed as enzyme-substrate-inhibitor dissociation constant using varying levels of pNP-alpha-G as substrate incubated for 30 mins and measured at 1 min interval for 30 mins by Lineweaver-burk plot analysis. The arrangement: species or system Saccharomyces cerevisiae.
Experiment [5] in a line: Mixed-type inhibition of yeast alpha-glucosidase assessed as […] dissociation constant using varying levels of pNP-alpha-G as substrate incubated for 30 mins and measured at 1 min interval for 30 mins by Lineweaver-burk plot analysis. Details: species or system Saccharomyces cerevisiae.

With `CC(C)CNC(=O)[C@@H](Cc1ccc(O)c(O)c1)OC(=O)/C=C/c1ccc(O)c(O)c1`, the Activity in experiment [1] turned out to be 2.15 µMequiv/µM. The concentration for half-maximal inhibition (IC50) in experiment [2] was 108 µM; in experiment [3], 11.9 µM.
Turning to `CN1CCN(CCNC(=O)[C@@H](Cc2ccc(O)c(O)c2)OC(=O)/C=C/c2ccc(O)c(O)c2)CC1`, the results for the inhibition constant (Ki) in experiment [4] and in experiment [5] were 34.8 µM and 22.8 µM, respectively. Also, in experiment [1], the Activity was found to be 2.77 µMequiv/µM. The figures for the IC50 in experiment [2] and in experiment [3] were 35.2 µM and 9.7 µM, respectively.
As for `O=C(/C=C/c1ccc(O)c(O)c1)O[C@H](Cc1ccc(O)c(O)c1)C(=O)NCCc1ccc(O)cc1`, the Activity in experiment [1] came to 3.28 µMequiv/µM. In addition, the values for the IC50 in experiment [2] and in experiment [3] were 74.9 µM and 7.1 µM, respectively.
For `O=C(/C=C/c1ccc(O)c(O)c1)O[C@H](Cc1ccc(O)c(O)c1)C(=O)NCCN1CCCCC1`, the Activity in experiment [1] was 2.84 µMequiv/µM. Further, the IC50 in experiment [2] worked out at 53.3 µM; in experiment [3] it was 10.1 µM.
For the compound `O=C(/C=C/c1ccc(O)c(O)c1)O[C@H](Cc1ccc(O)c(O)c1)C(=O)O` [ROSMARINIC ACID], the Activity in experiment [1] turned out to be 2.1 µMequiv/µM. For the same compound, the results for the IC50 in experiment [2] and in experiment [3] were 134 µM and 11 µM, respectively.
For `CCCCNC(=O)[C@@H](Cc1ccc(O)c(O)c1)OC(=O)/C=C/c1ccc(O)c(O)c1`, the Activity in experiment [1] was found to be 2.72 µMequiv/µM. The figures for the concentration for half-maximal inhibition (IC50) in experiment [2] and in experiment [3] were 106 µM and 8.3 µM, respectively.
Regarding `C[C@H]1O[C@H](O[C@H]2[C@H](O)[C@@H](O)[C@@H](O[C@H]3[C@H](O)[C@@H](O)C(O)O[C@@H]3CO)O[C@@H]2CO)[C@H](O)[C@@H](O)[C@@H]1N[C@H]1C=C(CO)[C@@H](O)[C@H](O)[C@H]1O` (stereo partly drawn) [ACARBOSE], the half-maximal inhibitory concentration (IC50) in experiment [2] lay in the range of 269 to 285 µM.
On to `CCN(CC)CCCNC(=O)[C@@H](Cc1ccc(O)c(O)c1)OC(=O)/C=C/c1ccc(O)c(O)c1`, for which the Activity in experiment [1] was 2.81 µMequiv/µM. The half-inhibitory concentration (IC50) in experiment [2] was 42.3 µM; in experiment [3] it was 8.9 µM.
Take `O=C(/C=C/c1ccc(O)c(O)c1)O[C@H](Cc1ccc(O)c(O)c1)C(=O)NCc1ccccc1`: in experiment [1], the Activity is 2.79 µMequiv/µM. In addition, the values for the IC50 in experiment [2] and in experiment [3] were 111 µM and 8.2 µM, respectively.
The like results for `CN(C)CCCNC(=O)[C@@H](Cc1ccc(O)c(O)c1)OC(=O)/C=C/c1ccc(O)c(O)c1` were, in that order, 2.64 µMequiv/µM, 65.5 µM and 9.3 µM.
`O=C(/C=C/c1ccc(O)c(O)c1)O[C@H](Cc1ccc(O)c(O)c1)C(=O)NCCc1ccccc1`: in experiment [1], the Activity is 3.07 µMequiv/µM. The IC50 in experiment [2] turned out to be 87.7 µM; in experiment [3], 10.4 µM.
Regarding `O=c1c(O)c(-c2ccc(O)c(O)c2)oc2cc(O)cc(O)c12` [QUERCETIN], the Activity in experiment [1] is 2.11 to 2.19 µMequiv/µM. The half-inhibitory concentration (IC50) in experiment [3] is 15.6 to 16.8 µM.
In the case of `Cc1ccc(CNC(=O)[C@@H](Cc2ccc(O)c(O)c2)OC(=O)/C=C/c2ccc(O)c(O)c2)cc1`, in experiment [1], the Activity was found to be 2.62 µMequiv/µM. The 50% inhibitory concentration (IC50) came to 109 µM in experiment [2] and 10.1 µM in experiment [3].
